What is called EC50 is the concentration needed to bring the measured effect to its halfway point. Higher therefore signals a need for much substance. As usually defined, the IC50 is the point on the concentration scale where inhibition reaches its midpoint.

For one assay, the system named is SUDHL10. Put plainly: Induction of caspase-3/7 activity, SUDHL10 (Assay 4). The format is cell-based. Particulars: SUDHL10 cells. Put shortly:
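DLBCL lines treated with compounds for 3 h at 37° C.; caspase-3/7 activity read by Caspase-Glo 3/7 luminescence. Medium-only background subtracted; EC50 fitted with bottom fixed at 1 and top set to reference compound's maximal induction.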

Another assay deals with MV-4-11. Put plainly: Antiproliferation assay MV-4-11 (Assay 7). The format is cell-based. To be noted: MV-4-11 cells, CellTiter-Glo, single determinations, read-out: IC50 Antiproli MV-4-11. Put shortly:
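Cells were incubated with compounds for 72 h at 37°C. Viability was then read by CellTiter-Glo luminescence, and a parallel day 0 plate read the same way gave the time-zero signal.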
For orientation: ATP-based viability assays read luminescence as a measure of living cells.

Another assay addresses BCL-2 (Homo sapiens (Human), UniProt P10415). Put plainly: Protein-protein interaction assay BCL-2/Bad BH3 peptide (BCL-2 assay), TR-FRET. The format is binding. Particulars: BCL-2/Bad BH3 peptide TR-FRET; median. The protocol:
Assay 3 Protein-Protein Interaction assay: BCL-2/Bad BH3 Peptide (BCL-2 Assay)
The dose-dependent inhibition by the compounds described in this invention of the interaction between BCL-2 and the BH3 domain of Bad (both human) was determined using a steady state binding competition assay with time-resolved fluorescence energy transfer (TR-FRET) readout. For that purpose BCL-2 (amino acids 1-211, C-terminal fused to a hexahistidine (6× His) tag (SEQ ID 5) and a synthetic Bad BH3-derived peptide of sequence Biotin-PEG2-PEG2-NLWAAQRYGRELRR-Nle-SDEFVDSFKK-amide (SEQ ID 4) served as protein receptor and tracer ligand respectively. The recombinant BCL-2 protein (expressed in E. coli) was purchased from BPS Bioscience (San Diego, Calif., USA). The Bad BH3-derived peptide can be obtained from e.g. Biosyntan (Berlin, Germany).
In the assay 11 different concentrations of each compound (0.1 nM, 0.33 nM, 1.1 nM, 3.8 nM, 13 nM, 44 nM, 0.15 μM, 0.51 μM, 1.7 μM, 5.9 μM and 20 μM) were typically measured as duplicates in the same microtiter plate. For that, 100-fold concentrated DMSO solutions were prepared by serial dilutions (1:3.4) of a 2 mM stock solution in a clear, 384-well microtiter plate (Greiner Bio-One, Frickenhausen, Germany). From there, 50 nl were transferred in a dark test plate (Greiner Bio-One, Frickenhausen, Germany). The assay was initiated by addition of 2 μl of a 2,5-fold concentrated His-BCL-2 solution (usually for a 1 nM end concentration in 5 μl reaction volume) in aqueous assay buffer [50 mM Tris/HCl pH 7, 100 mM sodium chloride (NaCl), 50 mM potassium fluoride (KF), 0.005% Tween-20, 2 mM DTT, 0.1% bovine gamma globulin (BGG)] to the compounds in the assay plate. This was followed by a 10-minute incubation step at 22° C. for pre-equilibration of the putative complex between His-BCL-2 and the compounds. After that, 3 μl of a 1.67-fold concentrated solution (in assay buffer) consisting of Bad BH3-derived peptide (1 nM end concentration) and TR-FRET detection reagents [1.67 nM anti-His-Eu cryptate and 1.67 nM streptavidin-XL665 (both from Cisbio Bioassays, Codolet, France)], were added.
The mixture was incubated in the dark for one hour at 22° C. and then overnight at 4° C. The formation of BCL-2/Bad complexes was determined by measuring the resonance energy transfer of the anti-His-Eu-cryptate antibody to the streptavidin-XL665 present in the reaction. For that purpose, the fluorescence emission at 620 nm and 665 nm after excitation at 330-350 nm was measured in a TR-FRET measuring instrument, for instance a Rubystar or a Pherastar (both from BMG Lab Technologies, Offenburg, Germany) or a Viewlux (Perkin-Elmer). The ratio of the emission at 665 nm and at 622 nm was used as indicator of the amount of BCL-2/Bad complexes present.
The resulting data (ratio) were normalized, taking 0% inhibition as the mean value of control measurements (usually 32 data points) where all reagents were included. In this case 50 nl DMSO were used instead of compounds. A 100% inhibition corresponded to the mean value of control measurements (usually 32 data points) where all reagents except BCL-2 were included. IC50 values were determined by regression analysis based on a 4 parameter equation (minimum, maximum, IC50, Hill; Y=Max+(Min−Max)/(1+(X/IC50)^Hill) using the Screener Software (Genedata).

[1] abbreviates: Homo sapiens, SU-DHL10, 3 h, Caspase-Glo 3/7, median.

Several values for one entry are separate records, joined by “and”; a condition that tells them apart may be missing. Identical values can stand only once. Like-named read-outs stand apart in the source and are kept apart here. Where only a bound is given, the exact number is not on record here.

Chain of BCL-2 (P10415 1-211): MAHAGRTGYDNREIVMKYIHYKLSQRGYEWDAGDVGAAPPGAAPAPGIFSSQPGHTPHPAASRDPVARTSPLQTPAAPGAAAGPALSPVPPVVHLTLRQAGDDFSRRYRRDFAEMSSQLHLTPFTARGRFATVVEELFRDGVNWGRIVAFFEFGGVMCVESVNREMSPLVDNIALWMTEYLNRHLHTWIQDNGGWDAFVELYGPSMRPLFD

Compound `Cc1c2c(nn1C)COC/C=C\Cn1c(C(=O)O)c(CCCOc3cccc4ccccc34)c3ccc(F)c-2c31` (racemic) [Example 1, (rac)-(11Z)-4-fluoro-2,3-dimethyl-7-[3-(naphthalen-1-yloxy)propyl]-2,10,13,15-tetrahydro-pyrazolo[4′,3′:9,10][1,6]oxazacycloundecino[8,7,6-hi]indole-8-carboxylic acid] had an EC50 in the assay on SUDHL10 (setting [1]) of 2.5 µM. Besides, the IC50 in the assay with MV-4-11 (Homo sapiens, MV4-11, 72 h) is 11.3 µM; in the assay with MV-4-11 (72 h, listed as 01) it was 14.2 µM; against BCL-2, greater than 20 µM.

`Cc1nn(C)c2c1-c1c(F)ccc3c(CCCOc4cccc5cc(F)ccc45)c(C(=O)O)n(c13)CCCCOC2` (racemic) [Example 32, (rac)-13-fluoro-1-(3-((6-fluoronaphthalen-1-yl)oxy)propyl)-10,12-dimethyl-4,5,6,7,9,10-hexahydropyrazolo[4′,3′:9,10][1]oxa[6]azacycloundecino[8,7,6-hi]indole-2-carboxylic acid] gave an EC50 in the assay with SUDHL10 (setting [1]) of 2.6 µM. Also, the IC50 is 4.85 µM in the assay with MV-4-11 (Homo sapiens, MV4-11, 72 h); 4.8 µM and 4.75 µM in the assay with MV-4-11 (72 h); greater than 20 µM against BCL-2.

Compound `Cc1c2c(nn1C)COCCCCn1c(C(=O)O)c(CCCOc3cccc4c3CCC4)c3ccc(F)c-2c31` (racemic) [Example 19, (rac)-1-(3-((2,3-dihydro-1H-inden-4-yl)oxy)propyl)-13-fluoro-11,12-dimethyl-4,5,6,7,9,11-hexahydropyrazolo[4′,3′:9,10][1]oxa[6]azacycloundecino[8,7,6-hi]indole-2-carboxylic acid] gave an EC50 with SUDHL10 (setting [1]) of 3.8 µM. Also, the half-inhibitory concentration (IC50) was 4.3 µM with MV-4-11 (Homo sapiens, MV4-11, 72 h); 2.9 µM and 4.9 µM in the assay with MV-4-11 (72 h); greater than 20 µM at BCL-2.

In turn, `Cc1c2c(nn1C)COCCCCn1c(C(=O)O)c(CCCOc3ccc(F)c4ccccc34)c3ccc(F)c-2c31` (single isomer, unassigned; enantiomer 1) [Example 16, 4-fluoro-7-{3-[(4-fluoronaphthalen-1-yl)oxy]propyl}-2,3-dimethyl-2,10,11,12,13,15-hexahydro-pyrazolo[4′,3′:9,10][1,6]oxazacycloundecino[8,7,6-hi]indole-8-carboxylic acid (enantiomer 1)] had a concentration giving a half-maximal response (EC50) in the assay with SUDHL10 (3 h, Caspase-Glo 3/7, median) of 4.1 µM. Also, the IC50 in the assay on MV-4-11 (72 h) is 3.55 µM; on BCL-2, greater than 20 µM.

`Cc1nn(C)c2c1-c1c(F)ccc3c(CCCOc4cccc5c4CCC5)c(C(=O)O)n(c13)CCCCOC2` (racemic) [Example 35, (rac)-1-(3-((2,3-dihydro-1H-inden-4-yl)oxy)propyl)-13-fluoro-10,12-dimethyl-4,5,6,7,9,10-hexahydropyrazolo[4′,3′:9,10][1]oxa[6]azacycloundecino[8,7,6-hi]indole-2-carboxylic acid]: in the assay with SUDHL10 (setting [1]), the response was half-maximal at 20 µM (EC50). Further, the IC50 is 12.4 µM in the assay with MV-4-11 (Homo sapiens, MV4-11, 72 h) and greater than 20 µM on BCL-2.

Compound `Cc1nn(C)c2c1-c1c(F)ccc3c(CCCOc4cccc5ccccc45)c(C(=O)O)n(c13)C/C=C\COC2` (racemic) [Example 9, (rac)-(Z)-13-fluoro-10,12-dimethyl-1-(3-(naphthalen-1-yloxy)propyl)-4,7,9,10-tetrahydro-pyrazolo[4′,3′:9,10][1]oxa[6]azacycloundecino[8,7,6-hi]indole-2-carboxylic acid] showed an EC50 in the assay on SUDHL10 (setting [1]) of 18 µM. In addition, the half-maximal inhibitory concentration (IC50) was 7.5 µM with MV-4-11 (Homo sapiens, MV4-11, 72 h); 6.04 µM with MV-4-11 (72 h, listed as 09); greater than 20 µM at BCL-2.

`CCc1nn(C)c2c1-c1c(F)ccc3c(CCCOc4cccc5c4CCCC5)c(C(=O)O)n(c13)CCCCOC2` (racemic) [Example 44, (rac)-12-ethyl-13-fluoro-10-methyl-1-(3-((5,6,7,8-tetrahydronaphthalen-1-yl)oxy)propyl)-4,5,6,7,9,10-hexahydropyrazolo[4′,3′:9,10][1]oxa[6]azacycloundecino[8,7,6-hi]indole-2-carboxylic acid] returned an EC50 with SUDHL10 (setting [1]) of 4.5 µM. The IC50 is 9.83 µM with MV-4-11 (Homo sapiens, MV4-11, 72 h) and greater than 20 µM on BCL-2.

In the case of `CCc1nn(C)c2c1-c1c(F)ccc3c(CCCOc4cccc5ccccc45)c(C(=O)O)n(c13)C/C=C\COC2` (racemic) [Example 11, (rac)-(Z)-12-ethyl-13-fluoro-10-methyl-1-(3-(naphthalen-1-yloxy)propyl)-4,7,9,10-tetrahydro-pyrazolo[4′,3′:9,10][1]oxa[6]azacycloundecino[8,7,6-hi]indole-2-carboxylic acid], a half-maximal effect in the assay on SUDHL10 (setting [1]) (EC50) was put at 6.5 µM. Also, the concentration for half-maximal inhibition (IC50) in the assay on MV-4-11 (Homo sapiens, MV4-11, 72 h) was 7.67 µM; with MV-4-11 (72 h), 12.8 µM; on BCL-2 it was greater than 20 µM.

As to `Cc1cc(OCCCc2c(C(=O)O)n3c4c(c(F)ccc24)-c2c(C)nn(C)c2COCCCC3)cc(C)c1Cl` (racemic) [Example 36, (rac)-1-(3-(4-chloro-3,5-dimethylphenoxy)propyl)-13-fluoro-10,12-dimethyl-4,5,6,7,9,10-hexahydropyrazolo[4′,3′:9,10][1]oxa[6]azacycloundecino[8,7,6-hi]indole-2-carboxylic acid], the EC50 in the assay with SUDHL10 (setting [1]) came out at 12 µM. Also, the half-maximal inhibitory concentration (IC50) in the assay on MV-4-11 (Homo sapiens, MV4-11, 72 h) was 16.4 µM; against BCL-2, greater than 20 µM.

`CCc1nn(C)c2c1-c1c(F)ccc3c(CCCOc4cccc5c4CCC5)c(C(=O)O)n(c13)CCCCOC2` (racemic) [Example 45, (rac)-1-(3-((2,3-dihydro-1H-inden-4-yl)oxy)propyl)-12-ethyl-13-fluoro-10-methyl-4,5,6,7,9,10-hexahydropyrazolo[4′,3′:9,10][1]oxa[6]azacycloundecino[8,7,6-hi]indole-2-carboxylic acid] yielded an EC50 in the assay on SUDHL10 (setting [1]) of 6.4 µM. The 50% inhibitory concentration (IC50) in the assay on MV-4-11 (Homo sapiens, MV4-11, 72 h) is 6.2 µM; with MV-4-11 (72 h), 6.56 µM; against BCL-2, greater than 20 µM.

Compound `Cc1nn(C)c2c1-c1c(F)ccc3c(CCCOc4ccc(F)c5ccccc45)c(C(=O)O)n(c13)CCCCOC2` (racemic) [Example 33, (rac)-13-fluoro-1-(3-((4-fluoronaphthalen-1-yl)oxy)propyl)-10,12-dimethyl-4,5,6,7,9,10-hexahydropyrazolo[4′,3′:9,10][1]oxa[6]azacycloundecino[8,7,6-hi]indole-2-carboxylic acid] came in with a half-maximal effective concentration (EC50) in the assay with SUDHL10 (setting [1]) of 9.1 µM. Further, the concentration for half-maximal inhibition (IC50) in the assay on MV-4-11 (Homo sapiens, MV4-11, 72 h) is 11.2 µM; on BCL-2 it was greater than 20 µM.

(Values after US11286263B2, “Macrocyclic fluorine substituted indole derivatives” (The Broad Institute, Inc., priority 2017, dated 2022).)
